Results from the supplement of paper PMC10307832.

How the values were obtained:
Assay in all cases: relative viability (nuclei count vs DMSO), 5 days (fraction); higher = more cells survive
Tozasertib + Phenformin = compound: Cc1cc(Nc2cc(N3CCN(C)CC3)nc(Sc3ccc(NC(=O)C4CC4)cc3)n2)n[nH]1 [Tozasertib] + N=C(N)NC(=N)NCCc1ccccc1 [Phenformin] (partner 250 µM)
Summary of the method: (§1)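 Relative viability was taken as the ratio of nuclei in treated wells to nuclei in vehicle wells. Lung cancer cell lines in 1536-well plates received compounds by pin tool one day after seeding, either one drug alone or a fixed anchor-drug dose plus five library-drug doses (not always all listed) in √10 steps. Nuclei were counted on 4× images after 5 days of treatment, and values are medians of duplicate plates.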

Tozasertib + OSI-027 = compound: Cc1cc(Nc2cc(N3CCN(C)CC3)nc(Sc3ccc(NC(=O)C4CC4)cc3)n2)n[nH]1 [Tozasertib] + COc1cccc2cc(-c3nc([C@H]4CC[C@H](C(=O)O)CC4)n4ncnc(N)c34)[nH]c12 [OSI-027] (partner 0.5 µM)
Summary of the method: as §1

Tozasertib + Lapatinib = compound: Cc1cc(Nc2cc(N3CCN(C)CC3)nc(Sc3ccc(NC(=O)C4CC4)cc3)n2)n[nH]1 [Tozasertib] + CS(=O)(=O)CCNCc1ccc(-c2ccc3ncnc(Nc4ccc(OCc5cccc(F)c5)c(Cl)c4)c3c2)o1 [Lapatinib] (partner 2 µM)
Summary of the method: as §1

Tozasertib + Alpelisib = compound: Cc1cc(Nc2cc(N3CCN(C)CC3)nc(Sc3ccc(NC(=O)C4CC4)cc3)n2)n[nH]1 [Tozasertib] + Cc1nc(NC(=O)N2CCC[C@H]2C(N)=O)sc1-c1ccnc(C(C)(C)C(F)(F)F)c1 [Alpelisib] (partner 2 µM)
Summary of the method: as §1

Tozasertib + Luminespib = compound: Cc1cc(Nc2cc(N3CCN(C)CC3)nc(Sc3ccc(NC(=O)C4CC4)cc3)n2)n[nH]1 [Tozasertib] + CCNC(=O)c1noc(-c2cc(C(C)C)c(O)cc2O)c1-c1ccc(CN2CCOCC2)cc1 [Luminespib] (partner 0.01 µM)
Summary of the method: as §1

Cell Line	relative viability (Tozasertib + Phenformin; first compound 0.004 µM)	relative viability (Tozasertib + Phenformin; first compound 0.01265 µM)	relative viability (Tozasertib + Phenformin; first compound 0.04 µM)	relative viability (Tozasertib + Phenformin; first compound 0.1265 µM)	relative viability (Tozasertib + OSI-027; first compound 0.004 µM)	relative viability (Tozasertib + OSI-027; first compound 0.01265 µM)	relative viability (Tozasertib + OSI-027; first compound 0.1265 µM)	relative viability (Tozasertib + Lapatinib; first compound 0.004 µM)	relative viability (Tozasertib + Lapatinib; first compound 0.01265 µM)	relative viability (Tozasertib + Lapatinib; first compound 0.04 µM)	relative viability (Tozasertib + Lapatinib; first compound 0.1265 µM)	relative viability (Tozasertib + Alpelisib; first compound 0.004 µM)	relative viability (Tozasertib + Alpelisib; first compound 0.01265 µM)	relative viability (Tozasertib + Alpelisib; first compound 0.04 µM)	relative viability (Tozasertib + Alpelisib; first compound 0.1265 µM)	relative viability (Tozasertib + Luminespib; first compound 0.004 µM)	relative viability (Tozasertib + Luminespib; first compound 0.01265 µM)	relative viability (Tozasertib + Luminespib; first compound 0.04 µM)	relative viability (Tozasertib + Luminespib; first compound 0.1265 µM)	relative viability (Tozasertib + OSI-027; first compound 0.04 µM)
NCI-H1975	0.444	0.432	0.428	0.366	0.968	0.758	0.683	0.886	0.876	0.903	0.429	0.747	0.749	0.763	0.586	0.213	0.32	0.171	0.198	
PC-3 [JPC-3]	0.377	0.49	0.536	0.469	0.587	0.74	0.701	0.45	0.46	0.529	0.33	0.835	1.03	1.03	0.959	0.625	0.699	0.814	0.71	0.799
NCI-H1944	0.203	0.211	0.211	0.167	0.471	0.397	0.247	0.869	0.728	0.772	0.339	0.785	0.75	0.891	0.495	0.717	0.706	0.866	0.414	0.422
NCI-H727	0.588	0.466	0.537	0.375	0.75	0.536	0.539	0.959		0.942	0.442	0.739	0.554	0.639	0.482	0.254	0.351	0.515	0.343	0.683
SK-LU-1	0.55	0.569	0.578	0.324	0.466	0.371	0.301	1.25	1.06	1.08	0.651	1.27	1.02	1.19	0.561	0.242	0.211	0.197	0.191	0.358
A-427	0.332	0.31	0.328	0.169	0.457	0.478	0.332	1.09		1.04	0.824	1.06	1.1	1.17	0.751	0.983	0.857	0.97	0.481	0.48
NCI-H2087	0.487	0.443	0.539	0.344	0.638	0.576	0.444	1.14	1.06	1.05	0.805	1.08	1.01	1.21	0.913	0.175	0.185	0.177	0.172	0.64
HARA	0.365	0.44	0.493	0.444	0.467	0.447	0.343		0.695	1.02	0.246	0.955	0.795	0.994	0.305	0.659	0.681	0.496	0.484	0.583
